Like-named read-outs stand apart in the source and are kept apart here. A value given as a limit tells only on which side of the number the result lay.

The target in experiment [1] is CTX-M-14 (Escherichia coli, UniProt Q9L5C7). Nature of the experiment: Inhibition of purified beta-lactamase, nitrocefin cleavage. The format is biochemical. How it is done: (§1) Purified enzymes were mixed with various concentrations of inhibitors in reaction buffer and incubated for 10 min at room temperature. Nitrocefin was added and substrate cleavage profiles were recorded at 490 nm every 10 sec for 10 min.
CTX-M-14, sequence (Q9L5C7 entry or part of it): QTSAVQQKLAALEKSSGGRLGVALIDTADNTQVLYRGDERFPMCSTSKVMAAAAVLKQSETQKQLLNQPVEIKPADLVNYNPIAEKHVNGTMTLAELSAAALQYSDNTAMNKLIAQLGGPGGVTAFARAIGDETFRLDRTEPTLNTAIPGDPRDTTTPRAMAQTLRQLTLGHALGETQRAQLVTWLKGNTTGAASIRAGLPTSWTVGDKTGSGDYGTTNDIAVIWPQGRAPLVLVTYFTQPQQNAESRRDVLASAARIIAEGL

For experiment [2], the target named is KPC-2 (Klebsiella pneumoniae, UniProt Q9F663). The experiment is described as above. It is filed as biochemical. Conditions: read-out: Ki (KPC-2, NCF). The procedure: as §1
KPC-2, sequence (Q9F663 25-293, looked up, species assumed): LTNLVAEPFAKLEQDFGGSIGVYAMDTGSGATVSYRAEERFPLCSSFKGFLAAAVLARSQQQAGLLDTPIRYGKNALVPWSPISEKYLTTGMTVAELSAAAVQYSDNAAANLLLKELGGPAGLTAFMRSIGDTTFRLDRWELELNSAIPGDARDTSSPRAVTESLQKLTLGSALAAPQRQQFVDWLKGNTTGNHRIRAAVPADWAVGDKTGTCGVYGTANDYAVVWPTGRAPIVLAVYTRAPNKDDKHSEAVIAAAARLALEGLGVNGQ
Experiment [3] concerns the target OXA-48 (Klebsiella pneumoniae, UniProt Q6XEC0). The description is as above. The note with it: read-out: Ki (OXA-48, NCF). It is filed as biochemical. The procedure:
as §1

For experiment [4], the target named is SHV-12 (Klebsiella pneumoniae, UniProt P0AD64, E235K/G234S/L31Q). The description is as above. The note with it: read-out: Ki (SHV-12, NCF). The format is biochemical. How it is done:
as §1

The target in experiment [5] is P99/AmpC of ECL (Enterobacter cloacae, UniProt P05364). Description: biochemical. Conditions: nitrocefin; read-out: Ki (P99/AmpC of ECL, NCF). The procedure:
as §1

The target of experiment [6] is CMY-2 (Klebsiella pneumoniae, UniProt Q48434). Nature of the experiment: Inhibition of purified beta-lactamase, nitrocefin cleavage. The format is biochemical. How it is done:
as §1

[7] abbreviates: nitrocefin, read-out: Ki (CMY-2, NCF).

CMY-2, sequence (Q48434 21-381, species assumed): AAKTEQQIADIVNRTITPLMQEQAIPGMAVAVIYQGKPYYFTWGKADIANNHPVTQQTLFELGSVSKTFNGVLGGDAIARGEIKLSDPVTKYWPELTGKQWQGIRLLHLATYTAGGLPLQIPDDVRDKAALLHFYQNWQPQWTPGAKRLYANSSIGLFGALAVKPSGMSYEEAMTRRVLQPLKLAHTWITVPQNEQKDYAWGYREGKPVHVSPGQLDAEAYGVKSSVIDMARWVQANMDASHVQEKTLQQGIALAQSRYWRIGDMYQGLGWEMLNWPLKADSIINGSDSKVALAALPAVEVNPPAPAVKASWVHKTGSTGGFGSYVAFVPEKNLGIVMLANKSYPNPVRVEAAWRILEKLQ
OXA-48, sequence (Q6XEC0 23-265, looked up): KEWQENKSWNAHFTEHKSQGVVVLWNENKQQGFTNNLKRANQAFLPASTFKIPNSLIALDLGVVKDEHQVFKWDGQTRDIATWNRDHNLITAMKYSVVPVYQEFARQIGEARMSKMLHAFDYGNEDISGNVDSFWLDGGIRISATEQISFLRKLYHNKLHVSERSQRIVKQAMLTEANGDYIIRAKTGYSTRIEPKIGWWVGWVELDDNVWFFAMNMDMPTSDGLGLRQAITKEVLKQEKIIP
SHV-12, sequence (P0AD64 22-286 L31Q/G234S/E235K): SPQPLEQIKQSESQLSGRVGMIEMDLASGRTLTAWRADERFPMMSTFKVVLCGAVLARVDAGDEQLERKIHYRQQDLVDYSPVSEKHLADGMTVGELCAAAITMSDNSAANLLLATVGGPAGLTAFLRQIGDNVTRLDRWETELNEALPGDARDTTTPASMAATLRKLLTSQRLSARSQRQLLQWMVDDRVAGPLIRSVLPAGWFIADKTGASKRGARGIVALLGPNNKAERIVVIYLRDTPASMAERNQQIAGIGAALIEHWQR
P99/AmpC of ECL, sequence (P05364 21-381): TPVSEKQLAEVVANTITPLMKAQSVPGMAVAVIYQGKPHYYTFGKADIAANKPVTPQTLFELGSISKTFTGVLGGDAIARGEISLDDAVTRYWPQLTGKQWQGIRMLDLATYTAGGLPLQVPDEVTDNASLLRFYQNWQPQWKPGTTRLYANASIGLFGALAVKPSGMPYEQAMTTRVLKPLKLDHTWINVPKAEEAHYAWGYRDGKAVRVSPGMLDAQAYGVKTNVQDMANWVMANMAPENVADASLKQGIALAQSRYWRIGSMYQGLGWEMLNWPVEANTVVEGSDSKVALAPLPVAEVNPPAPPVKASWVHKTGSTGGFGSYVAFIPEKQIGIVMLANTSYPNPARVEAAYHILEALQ

On to `CO[C@H]1Cc2cccc(C(=O)O)c2OB1O` [Compound 17, (R)-2-hydroxy-3-methoxy-3,4-dihydro-2H-benzo[e][1,2]oxaborinine-8-carboxylic acid], for which the Ki in experiment [1], in experiment [2], in experiment [3], in experiment [4] and in experiment [5] was under 100 nM in each case.

In the case of `O=C(O)c1cccc2c1OB(O)[C@@H](Sc1nccs1)C2` [Compound 11, (R)-2-hydroxy-3-(thiazol-2-ylthio)-3,4-dihydro-2H-benzo[e][1,2]oxaborinine-8-carboxylic acid], the Ki in experiment [6] (setting [7]), in experiment [3], in experiment [4] and in experiment [5] was under 100 nM throughout.

`O=C(O)[C@H]1/C(=C/CO)O[C@@H]2CC(=O)N21` [Clavulanic acid, reference compound]: the Ki in experiment [6] (setting [7]) is over 1000 nM; in experiment [1] (nitrocefin, read-out: Ki (CTX-M-14, NCF)), under 100 nM; in experiment [2], over 1000 nM; in experiment [3], over 1000 nM.

With `CSc1ccc2c(c1C(=O)O)OB(O)[C@@H](Sc1nncn1N)C2` [Compound 25, (R)-3-(4-amino-4H-1,2,4-triazol-3-ylthio)-2-hydroxy-7-(methylthio)-3,4-dihydro-2H-benzo[e][1,2]oxaborinine-8-carboxylic acid], the Ki in experiment [1] is under 100 nM; in experiment [2], 100 to 1000 nM; in experiment [3], under 100 nM; in experiment [4], under 100 nM; in experiment [5], 100 to 1000 nM.

Turning to `Nc1nnc(S[C@H]2Cc3ccc(F)c(C(=O)O)c3OB2O)s1` [Compound 23, (R)-3-(5-amino-1,3,4-thiadiazol-2-ylthio)-7-fluoro-2-hydroxy-3,4-dihydro-2H-benzo[e][1,2]oxaborinine-8-carboxylic acid], the Ki in experiment [1], in experiment [2], in experiment [3], in experiment [4] and in experiment [5] was under 100 nM each time.

`C[C@]1(Cn2ccnn2)[C@H](C(=O)O)N2C(=O)C[C@H]2S1(=O)=O` [Tazobactam, reference compound]: the Ki in experiment [6] was 100 to 1000 nM; in experiment [2], over 1000 nM; in experiment [3], 100 to 1000 nM.

For `O=C(O)c1cccc2c1OB(O)[C@@H](OC1CNC1)C2` [Compound 18, (R)-3-(azetidin-3-yloxy)-2-hydroxy-3,4-dihydro-2H-benzo[e][1,2]oxaborinine-8-carboxylic acid], the Ki is 100 to 1000 nM in experiment [1]; 100 to 1000 nM in experiment [2]; under 100 nM in experiment [3]; under 100 nM in experiment [4]; 100 to 1000 nM in experiment [5].

Regarding `Nn1cnnc1S[C@H]1Cc2ccc(F)c(C(=O)O)c2OB1O` [Compound 20, (R)-3-(4-amino-4H-1,2,4-triazol-3-ylthio)-7-fluoro-2-hydroxy-3,4-dihydro-2H-benzo[e][1,2]oxaborinine-8-carboxylic acid], the Ki in experiment [1] is under 100 nM; in experiment [2], 100 to 1000 nM; in experiment [3], 100 to 1000 nM; in experiment [4], under 100 nM; in experiment [5], 100 to 1000 nM.

In the case of `O=C(O)c1cccc2c1OB(O)[C@@H](Sc1c[nH]nn1)C2` [Compound 12, (R)-3-(1H-1,2,3-triazol-4-ylthio)-2-hydroxy-3,4-dihydro-2H-benzo[e][1,2]oxaborinine-8-carboxylic acid], the Ki in experiment [2] was 100 to 1000 nM.

With `CC(=N)S[C@H]1Cc2cccc(C(=O)O)c2OB1O` [Compound 10, (R)-2-hydroxy-3-(1-iminoethylthio)-3,4-dihydro-2H-benzo[e][1,2]oxaborinine-8-carboxylic acid], in experiment [2], the Ki was 100 to 1000 nM.

Consider `Cn1cnnc1S[C@H]1Cc2ccc(F)c(C(=O)O)c2OB1O` [Compound 24, (R)-7-fluoro-2-hydroxy-3-(4-methyl-4H-1,2,4-triazol-3-ylthio)-3,4-dihydro-2H-benzo[e][1,2]oxaborinine-8-carboxylic acid], for which the Ki in experiment [1] is under 100 nM; in experiment [2] it was 100 to 1000 nM; in experiment [3] it was under 100 nM; in experiment [4] it was under 100 nM; in experiment [5] it was 100 to 1000 nM.
